Test results: PubChem BioAssay AID1996
≈ marks a conversion by molar mass, not a printed value.

Conditions: buffer; pH 7.4; 200.0 µM

`O=C(N/C(=C\c1ccco1)C(=O)N1CCCC(CO)C1)c1ccccc1` (stereo not given) and `CC(C)(C)OC(=O)N1CCC(CNC(=O)c2ccccc2)CC1` cannot be ordered by solubility kinetic: > 53.2 µg/mL for the first, > 47.8 µg/mL for the second.

`NC(=O)c1ccsc1NC(=O)CSc1nnc2ccccn12` and `Cc1nc2ccccn2c(=O)c1NC(=O)c1cccs1` cannot be ordered by solubility kinetic: > 50 µg/mL for the first, > 42.8 µg/mL for the second.

First: CC1(C2CC2)NC(=O)N(CC(=O)NCC(=O)Nc2ccc(F)c(F)c2F)C1=O (stereo not given)
Second: COC(=O)c1cccc(NC(=O)CN2C(=O)c3ccccc3C2=O)c1
The solubility kinetic of the first is higher: > 59.8 µg/mL for the first, 21.3 µg/mL (≈ 63 µM) for the second.

`O=C(NCC1CCCO1)c1cc2ccccc2nc1Cl` (stereo not given) and `Cc1cc(C(=O)NC2CCCC2)c2ccccc2n1` cannot be ordered by solubility kinetic: > 43.6 µg/mL for the first, > 38.1 µg/mL for the second.

`C=C(C)c1cccc(C(C)(C)NC(=O)N2CCC(C(N)=O)CC2)c1` and `NC(=O)C1CCN(C(=O)CCc2ccsc2)CC1` cannot be ordered by solubility kinetic: > 49.4 µg/mL for the first, > 40 µg/mL for the second.

Going from `Cc1cnc(NC(=O)CSCc2c(C)noc2C)s1` to `COc1ccc(Cl)cc1NC(=O)c1noc(C)c1[N+](=O)[O-]`, the solubility kinetic falls from 19.6 µg/mL (≈ 65.9 µM) to 9 µg/mL (≈ 28.9 µM) (2.2-fold).

`CC[C@H](C)[C@H](NC(N)=O)C(=O)NCCc1ccc(OC)c(OC)c1` and `CCOC(=O)CCNCc1ccc(OC)c(OC)c1.Cl` cannot be ordered by solubility kinetic: > 50.6 µg/mL for the first, > 45.6 µg/mL for the second.

Compared with `Cc1cc(Br)ccc1S(=O)(=O)n1ccnc1C`, `Cc1cc(C)nc(NS(=O)(=O)c2ccc(CC(C)C)cc2)c1` is lower in solubility kinetic: > 47.3 µg/mL for the first, 28.9 µg/mL (≈ 90.8 µM) for the second.

Going from `O=C(/C=C/c1ccco1)Nc1nc(-c2ccc(F)c(F)c2)cs1` to `CCC(=O)Nc1cccc(-c2nc3ccc(C)cc3o2)c1`, the solubility kinetic rises from < 0.4 µg/mL to 1.6 µg/mL (≈ 5.71 µM).

Going from `CCCCN(C(=O)COC(=O)c1ccc(C)s1)c1c(N)n(CCC)c(=O)[nH]c1=O` to `Cc1sc2nc(COC(=O)c3ccc(O)cc3)[nH]c(=O)c2c1C`, the solubility kinetic falls from 17.9 µg/mL (≈ 42.4 µM) to 8 µg/mL (≈ 24.2 µM) (2.2-fold).

`CC(=O)N1CCN(S(=O)(=O)c2ccc(F)c(Cl)c2)CC1` and `CC(=O)N1CCN(c2ncnc3ccccc23)CC1` cannot be ordered by solubility kinetic: > 48.1 µg/mL for the first, > 38.4 µg/mL for the second.

First: Cc1ccc(NCc2nc3ccccc3n2C)c(C)c1
Second: CCCCn1c(Nc2ccc(OC)cc2)nc2ccccc21
The solubility kinetic of the first is 54-fold higher: 32.1 µg/mL (≈ 121 µM) for the first, 0.6 µg/mL (≈ 2.03 µM) for the second.

First: CN(C(=O)COC(=O)c1ccc(Cl)nc1)C1CCS(=O)(=O)C1 (stereo not given)
Second: CN(CCOC(=O)c1ccc2c(c1)OCO2)C(C)(C)C.Cl
The solubility kinetic of the first is higher: > 52 µg/mL for the first, 41.7 µg/mL for the second.

Compared with `COCCn1c(SCC(=O)NC2CCCC2)nc2cccnc21`, `O=C(NC1CCCC1)c1cc2cc(Br)ccc2o1` is lower in solubility kinetic: > 50.2 µg/mL for the first, 6.1 µg/mL (≈ 19.8 µM) for the second.

`CS(=O)(=O)Nc1ccc(S(=O)(=O)N2CCCCCC2)cc1` and `COc1cc(C)c(NC(=O)c2cccc(S(=O)(=O)N3CCCC3)c2)cc1OC` are within 1.5-fold of each other in solubility kinetic: 48.3 µg/mL (≈ 145 µM) for the first, 32.5 µg/mL (≈ 80.3 µM) for the second.

First: CCCn1c(=S)[nH]c2cc(Cl)ccc21
Second: O=c1c2ccccc2[nH]c(=S)n1Cc1ccccc1Cl
The solubility kinetic of the first is 36-fold higher: 32.3 µg/mL (≈ 142 µM) for the first, 0.9 µg/mL (≈ 2.97 µM) for the second.

First: Cc1c(Cl)cnc(NC(=O)COC(=O)[C@@H](NC(=O)c2ccco2)C(C)C)c1Cl
Second: CCC(C)c1ccc(NC(=O)c2ccco2)cc1 (stereo not given)
The solubility kinetic of the first is higher: > 64.2 µg/mL for the first, 24.6 µg/mL (≈ 101 µM) for the second.

`CCOC(=O)C(=O)c1c(-c2ccccc2)nc2ccccn12` and `O=C(O)Cn1cc(C(=O)c2ccccc2F)c2ccccc21` are within 1.5-fold of each other in solubility kinetic: 33.7 µg/mL (≈ 115 µM) for the first, 44.5 µg/mL (≈ 150 µM) for the second.

`CC(C(=O)c1c[nH]c2ccccc12)N1CCOCC1` (stereo not given) and `COCCn1cc(C(=S)N2CCCCC2)c2ccccc21` cannot be ordered by solubility kinetic: > 38.7 µg/mL for the first, > 45.4 µg/mL for the second.

`CCC(C)NC(=O)C1c2ccccc2C(=O)N1Cc1ccc(F)cc1` (stereo not given) and `CC(=O)C1=C(O)C(=O)N(Cc2ccccc2)C1c1cccc([N+](=O)[O-])c1` (stereo not given) cannot be ordered by solubility kinetic: > 51.1 µg/mL for the first, > 52.9 µg/mL for the second.

`COc1ccc(CCNc2nc(-c3ccncc3)cs2)cc1OC` and `COc1ccc(CCNC2=NCCS2)cc1OC` are within 1.5-fold of each other in solubility kinetic: 35.9 µg/mL (≈ 105 µM) for the first, 29.7 µg/mL (≈ 112 µM) for the second.

`O=C1CNC(=O)N1c1ccc(Cl)cc1` and `Cc1ccnc(SC2CC(=O)N(c3ccc(Cl)cc3)C2=O)n1` (stereo not given) cannot be ordered by solubility kinetic: > 31.6 µg/mL for the first, > 50.1 µg/mL for the second.

Going from `Fc1ccc(Nc2nc3ccccc3s2)cc1` to `O=C(O)c1ccc(NC2=Nc3cccc4cccc2c34)cc1`, the solubility kinetic rises from 0.4 µg/mL (≈ 1.64 µM) to 36 µg/mL (≈ 125 µM) (90-fold).

Compared with `O=C(Nc1ccccc1Cl)OC1CN2CCC1CC2` (stereo not given), `CCOC(=O)N1CCC(NC(=O)c2ccccc2C(=O)O)CC1` is higher in solubility kinetic: 38.1 µg/mL (≈ 136 µM) for the first, > 48.1 µg/mL for the second.

`O=C(O)/C=C/c1ccccc1[N+](=O)[O-]` and `O=C(Nc1ncc([N+](=O)[O-])s1)C1COc2ccccc2O1` (stereo not given) cannot be ordered by solubility kinetic: > 29 µg/mL for the first, > 46.1 µg/mL for the second.

First: COc1ccc2c(CC(=O)NNC(=O)c3ccc(O)cc3)coc2c1
Second: COc1ccc2[nH]cc(CCNC(=O)c3ccc([N+](=O)[O-])cc3)c2c1
The solubility kinetic of the first is higher: > 51.1 µg/mL for the first, 26.3 µg/mL (≈ 77.5 µM) for the second.

First: Cc1ccc2c(C)c(C(=O)N(C)Cc3ccncn3)oc2c1C
Second: Cc1ccc(C(=O)N2C(=O)c3cccc(N)c3C2=O)o1
The solubility kinetic of the first is 8.4-fold higher: 32.7 µg/mL (≈ 106 µM) for the first, 3.9 µg/mL (≈ 14.4 µM) for the second.

`CCC(=O)Nc1ccc2c(c1)ncn2CCc1ccccc1` and `CC(=O)Nc1ccc(NC(=O)COC(=O)Cn2cnc3ccccc32)cc1` cannot be ordered by solubility kinetic: > 44 µg/mL for the first, > 55 µg/mL for the second.

Going from `O=C(CCl)Nc1c2c(nn1-c1ccccc1)CSC2` to `Cc1csc(SCC(=O)Nc2ccccc2)n1`, the solubility kinetic falls from > 44.1 µg/mL to 35.5 µg/mL (≈ 134 µM).

Going from `O=C1Nc2ccc(Cl)cc2C(=O)C1(F)c1ccccc1` (stereo not given) to `O=C1CC2(CCN(C(=O)c3cccc(F)c3)CC2)Oc2ccccc21`, the solubility kinetic rises from 1.7 µg/mL (≈ 5.87 µM) to > 50.9 µg/mL.

`Cc1cc(C)c(S(=O)(=O)NC2CC2)c(C)c1` and `Cc1cc(C(=O)N2CCC(Cc3ccccc3)CC2)c(C)o1` cannot be ordered by solubility kinetic: > 35.9 µg/mL for the first, 41.6 µg/mL (≈ 140 µM) for the second.

`O=C(CN1CCN(c2ccc(F)cc2)CC1)NCc1ccc(Cl)cc1` and `COc1ccc(N2CCN(CC(=O)NC(=O)NC(C)(C)C)CC2)cc1` are within 1.5-fold of each other in solubility kinetic: 51.2 µg/mL (≈ 141 µM) for the first, 51.3 µg/mL (≈ 147 µM) for the second.

`O=C(O)C1C2C=CC(C2)C1C(=O)NCc1ccco1` (stereo not given) and `CN(CC12CC3CC(CC(C3)C1)C2)C(=O)c1ccco1` are within 1.5-fold of each other in solubility kinetic: 36.2 µg/mL (≈ 139 µM) for the first, 37.8 µg/mL (≈ 138 µM) for the second.

First: Cc1c(Cl)c([N+](=O)[O-])nn1CC(=O)NCCCN1CCOCC1
Second: COCCCNc1nc2nonc2nc1N1CCN(C2CCCC2)CC1
The solubility kinetic of the first is higher: > 51.9 µg/mL for the first, 45.9 µg/mL (≈ 127 µM) for the second.

Compared with `Cc1ccccc1NC(=O)Cn1cc(C(=O)C2CC2)c2ccccc21`, `CC(=O)Nc1ccc(S(=O)(=O)N2CCSc3ccccc32)cc1` is 71-fold higher in solubility kinetic: 0.7 µg/mL (≈ 2.11 µM) for the first, 49.6 µg/mL (≈ 142 µM) for the second.

Compared with `CCCCOc1ccc(/C(O)=C(\C#N)c2nc3ccccc3[nH]2)cc1`, `CCOc1ccc(C2Nc3ccccc3C(CC)(CC)O2)cc1` (stereo not given) is higher in solubility kinetic: < 0.2 µg/mL for the first, 2.1 µg/mL (≈ 6.74 µM) for the second.

Going from `COc1ccc(-c2nc(CN3CCN(c4ncccn4)CC3)c(C)o2)cc1C` to `CCOn1c(=O)c(-c2cc(OC)ccc2OC)[n+]([O-])c2ccccc21`, the solubility kinetic rises from 39 µg/mL (≈ 103 µM) to > 51.4 µg/mL.

First: COc1ccccc1/C(C)=N/Oc1cc(N)cc([N+](=O)[O-])c1
Second: CCCC(=O)OCC(=O)Nc1ccc([N+](=O)[O-])cc1C#N
The solubility kinetic of the first is lower: 1.7 µg/mL (≈ 5.64 µM) for the first, > 43.7 µg/mL for the second.

Going from `CC1C(=O)N2CCCc3cc(NC(=O)C(=O)NCc4cccnc4)cc1c32` (stereo not given) to `CN(C1CCCCC1)S(=O)(=O)c1ccc(-c2ccccn2)s1`, the solubility kinetic falls from > 54.7 µg/mL to 0.5 µg/mL (≈ 1.49 µM).

Going from `CC1CN(c2nc3ccccc3nc2NS(=O)(=O)c2ccccc2)CC(C)O1` (stereo not given) to `O=C(NCCc1ccc(Cl)cc1)c1ccc2ccccc2n1`, the solubility kinetic falls from > 59.8 µg/mL to 5.9 µg/mL (≈ 19 µM).

`COCCNC(=O)/C(C#N)=C/c1cc(Br)c(O)c(OC)c1` and `COc1ccc(OC)c(NC2=NCCS2)c1` cannot be ordered by solubility kinetic: 45 µg/mL (≈ 127 µM) for the first, > 35.7 µg/mL for the second.

Compared with `CCN1CCN(C(=S)NC(CC(=O)c2ccccc2)c2ccccc2)CC1` (stereo not given), `CC(C)(Oc1ccc(CCNC(=O)c2ccc(Cl)cc2)cc1)C(=O)O` is higher in solubility kinetic: 49.8 µg/mL (≈ 131 µM) for the first, > 54.3 µg/mL for the second.

Compound `CCOc1cc(C(=O)N=c2sccn2C)ccc1OC(F)F` has a solubility kinetic of 45.4 µg/mL (≈ 138 µM).
